SMILES strings stand for the structures.

The record followed here is patent US20260146039A1, “NEUR[…] THE TREATMENT OF PAIN, ITCH AND NERVE INJURY” (Cacti, Inc., priority 2023, published 2026).

Test [1] deals with cultured dorsal root ganglion (DRG) neurons. Briefly: Calcium flux in cultured DRG neurons (Fura-2AM calcium imaging). Type of test: cell-based, mice. As to the method: Methods: Assessment of Compound 1 Induced Calcium Flux in Cultured DRG Neurons To evaluate the effect of Compound 1 and Compound 2 on calcium flux in cultured dorsal root ganglion (DRG) neurons isolated from 8-week-old male mice, the following protocols were performed:
• 8-week-old C57BL6 male mice • Fura-2AM (calcium indicator dye) • Compound 1 (at concentrations of 1 μM and 10 μM) • Compound 2 (at concentrations of 1 μM and 10 μM) • ATP (P2X3R agonist, 10 μM) • Capsaicin (TRPV1 ligand, 10 μM) • KCl (50 mM) • Calcium imaging setup (calcium microscope)
• Euthanize 8-week-old male mice according to ethical guidelines. • Harvest the dorsal root ganglia (DRG) from the mice.
• Culture the DRG neurons in appropriate growth media for 24 hours. 3. […]
• Measure and record the average calcium flux (A). • Determine the percentage of responding neurons, identifying responding neurons as those with an f340/f380 fluorescence ratio >10% (B).
Eight-week-old C57BL6 male mice were euthanized, DRG harvested, and neurons cultured for 24 hours. The neurons were then loaded with Fura-2AM, a calcium-responsive dye, and single-neuron calcium flux was recorded by calcium microscopy. […] Average calcium flux (FIG. 1A) and the percentage (FIG. 1B) of responding neurons (identified as f340/f380>10% fluorescence) are shown. […]

In a further test the test system is C57BL6 mice. Description: CFA inflammatory pain model, Blackbox behavioral analysis of hind paw usage. To be noted: for reversal of CFA-induced mechanical hypersensitivity: beginning at 24 hours after intraplantar administration. It is filed as in vivo. The source says: To evaluate the effect of different treatments on voluntary pain-related behaviors in mice, we used the Blackbox behavioral analysis system, as previously described (Zhang, et al., PAIN, 2022 Dec. 1; 163 (12): 2326-2336, incorporated herein by reference in its entirety).
• Male and female C57BL6 mice (n=5 per group) • Complete Freund's Adjuvant (CFA, Sigma) • Saline • PBS • DMSO • Compound 1 • Compound 2 • Syringes (for injections) • Hargreaves apparatus (for thermal pain testing) • Blackbox behavioral analysis setup
• Divide mice into groups (n=10 per group). • Inject 20 μL of CFA or saline into the right hind paw of each mouse.
• 24 hours after CFA injection, randomly assign mice to the following groups: • Control Group: PBS+PBS • CFA+PBS Group • CFA+DMSO Group • CFA+Compound 1 Group • CFA+Compound 2 Group
• Inject the designated treatment (PBS (20 μL), DMSO (20 μL), Compound 1 (1 μM in 20 μL PBS), or Compound 2 (1 μM in 20 μL DMSO)) into the plantar right paw of each mouse according to their assigned group.
• Perform Blackbox behavioral analysis and Hargreaves test at the following time points after drug injection: 1 hour, 3 hours, 6 hours, and 24 hours.
• Blackbox Behavioral Analysis: • Place each mouse in the Blackbox apparatus for 10 minutes. • Record and analyze behaviors indicative of pain or discomfort (e.g., grooming, paw licking, flinching).
• Record the data for each mouse at each time point. • Compare the results across different groups to assess the effects of the treatments on pain response.
This protocol outlines the steps to assess the impact of different treatments on pain response in mice using Blackbox behavioral analysis. Mice are injected with CFA or saline, followed by treatment with Compound 1 or Compound 2, and negative controls using vehicle (PBS or DMSO) alone.
• 1. Control Group: PBS+PBS • 2. CFA+PBS Group • 3. CFA+DMSO Group • 4. CFA+Compound 1 Group • 5. CFA+Compound 2 Group
• 1 hour after drug injection • 3 hours after drug injection • 6 hours after drug injection • 24 hours after drug injection Precise timing and consistent handling throughout the experiment were utilized to maintain the validity of the results.
Effect of Compound 1. Eight-week-old male and female mice (n=5 mice/group) were injected with CFA (20 μL; intradermal) or saline (20 μL) into the right hind paw. Left (contralateral) hindpaw luminance (FIG. 3A) and ratio of time (FIG. 3B), as well as right hindpaw luminance (FIG. 4A) and ratio of time (FIG. 4B), were assessed as surrogates for mechanical pain hypersensitivity at 1-, 3-, 6-, and 24-hours post-treatment.
Data were analyzed using a two-way ANOVA to assess the effects of CFA injection and subsequent treatments on hindpaw usage and thermal pain hypersensitivity. Post-hoc comparisons were performed using Dunnett's test to identify significant differences between treatment groups.
Effect of Compound 2. Eight-week-old male and female mice (n=5 mice/group) were injected with CFA (20 μL; intradermal) or saline (20 μL) into the right hind paw. Left (contralateral) hind paw luminance (FIG. 5A) and ratio of time (FIG. 5B), as well as right hindpaw luminance (FIG. 6A) and ratio of time (FIG. 6B), were assessed as a readout of mechanical pain hypersensitivity at 1-, 3-, 6-, and 24-hours post-treatment.
Data were analyzed using a two-way ANOVA to assess the effects of CFA injection and subsequent treatments on hindpaw usage (mechanical hypersensitivity). Post-hoc comparisons were performed using Dunnett's test to identify significant differences between treatment groups.

Where [2] appears, read: Compound 1, 1 μM in 20 μL PBS, plantar right paw, 24 hours after CFA, 1, 3, 6, 24 hours post-treatment.

For the compound `CCN(CC)C(=O)[C@@H]1C=C2c3cccc4[nH]cc(c34)C[C@H]2[N+](C)(CC)C1` (stereo partly drawn) [Compound 1, (6aR,9R)-9-(diethylcarbamoyl)-7-ethyl-7-methyl-4,6,6a,7,8,9-hexahydroindolo[4,3-fg]quinolin-7-ium Iodide], in test [1], the “calcium flux / activation of DRG neurons (interpretation)” value is “produced calcium flux”. Further, in the test on C57BL6 mice (setting [2]), the “CFA-induced durable reduction of right paw usage” value is “partly reduced” and the “left (contralateral) paw usage after CFA in the right paw, compared to control mice” value is listed as “did not change”. The “reversal of CFA-induced mechanical hypersensitivity” value in the test with C57BL6 mice was “partial reversal”.
As for `CCCCCC[N+]1(C)C[C@H](C(=O)N(CC)CC)C=C2c3cccc4[nH]cc(c34)C[C@H]21` (stereo partly drawn) [Compound 2, (6aR,9R)-9-(diethylcarbamoyl)-7-hexyl-7-methyl-4,6,6a, 7,8,9-hexahydroindolo[4,3-fg]quinolin-7-ium Iodide], the “calcium flux / activation of DRG neurons (interpretation)” value in test [1] was “did not produce calcium flux”. The “left (contralateral) paw usage after CFA in the right paw, compared to control mice” value in the test on C57BL6 mice (Compound 2, 1 μM in 20 μL DMSO, plantar right paw, 24 hours after CFA, 1, 3, 6, 24 hours post-treatment) is “did not change”. The “CFA-induced durable reduction of right (injured) paw usage” value with C57BL6 mice (Compound 2, 1 μM in 20 μL DMSO, plantar right paw, effect beginning 24 hours after compound administration) was “partly reduced”. Further, the “reversal of CFA-induced mechanical hypersensitivity” value in the test with C57BL6 mice is listed as “partial reversal”.
